Active and inactive are the calls of the source. No cut-off for these calls is given here.
Legend:
[1] = system: Mus musculus; test: Anticonvulsant activity in F-1 albino mouse assessed as protection against 32 mA current-induced seizure at 300 mg/kg, ip pretreated at 0.5 hrs before current challenge by 6 Hz psychomotor seizure test; assay type: functional, organism-based
[2] = system: Mus musculus; test: Anticonvulsant activity in F-1 albino mouse assessed as protection against 32 mA current-induced seizure at 300 mg/kg, ip pretreated at 0.5 hrs by maximal electroshock seizure test; assay type: functional, organism-based
[3] = system: Mus musculus; test: Anticonvulsant activity in F-1 albino mouse assessed as protection against 32 mA current-induced seizure at 30 mg/kg, ip pretreated at 2 hrs by maximal electroshock seizure test; assay type: functional, organism-based
[4] = Neurotoxicity in F-1 albino mouse at 30 mg/kg, ip after 0.5 hrs by rotarod test; assay type: toxicity, organism-based; conditions: in vivo
[5] = system: Mus musculus; test: Anticonvulsant activity in ip dosed F-1 albino mouse assessed as protection against 32 mA current-induced seizure pretreated at 0.5 to 2 hrs by maximal electroshock seizure test; assay type: functional; conditions: F-1, ip
[6] = system: Mus musculus; test: Anticonvulsant activity in F-1 albino mouse assessed as protection against 32 mA current-induced seizure at 300 mg/kg, ip pretreated at 2 hrs before current challenge by 6 Hz psychomotor seizure test; assay type: functional, organism-based
[7] = system: Mus musculus; test: Anticonvulsant activity in F-1 albino mouse assessed as protection against 32 mA current-induced seizure at 100 mg/kg, ip pretreated at 0.5 hrs by maximal electroshock seizure test; assay type: functional, organism-based
[8] = Neurotoxicity in F-1 albino mouse at 30 mg/kg, ip after 2 hrs by rotarod test; assay type: toxicity, organism-based; conditions: in vivo
[9] = Neurotoxicity in F-1 albino mouse at 100 mg/kg, ip after 0.5 hrs by rotarod test; assay type: toxicity, organism-based; conditions: in vivo
[10] = system: Mus musculus; test: Anticonvulsant activity in F-1 albino mouse assessed as protection against 32 mA current-induced seizure at 100 mg/kg, ip pretreated at 2 hrs by maximal electroshock seizure test; assay type: functional, organism-based
[11] = system: Mus musculus; test: Anticonvulsant activity in F-1 albino mouse assessed as protection against 32 mA current-induced seizure at 30 mg/kg, ip pretreated at 0.5 hrs by maximal electroshock seizure test; assay type: functional, organism-based
[12] = Neurotoxicity in F-1 albino mouse at 300 mg/kg, ip after 2 hrs by rotarod test; assay type: toxicity, organism-based; conditions: in vivo
[13] = Neurotoxicity in F-1 albino mouse at 300 mg/kg, ip after 0.5 hrs by rotarod test; assay type: toxicity, organism-based; conditions: in vivo
[14] = Neurotoxicity in F-1 albino mouse at 100 mg/kg, ip after 2 hrs by rotarod test; assay type: toxicity, organism-based; conditions: in vivo
[15] = system: Mus musculus; test: Anticonvulsant activity in F-1 albino mouse assessed as protection against 32 mA current-induced seizure at 300 mg/kg, ip pretreated at 2 hrs by maximal electroshock seizure test; assay type: functional, organism-based
[16] = system: Mus musculus; test: Anticonvulsant activity in F-1 albino mouse assessed as protection against 32 mA current-induced seizure at 30 mg/kg, ip pretreated at 0.5 hrs before current challenge by 6 Hz psychomotor seizure test; assay type: functional, organism-based
[17] = system: Mus musculus; test: Anticonvulsant activity in F-1 albino mouse assessed as protection against 32 mA current-induced seizure at 30 mg/kg, ip pretreated at 2 hrs before current challenge by 6 Hz psychomotor seizure test; assay type: functional, organism-based
[18] = system: Mus musculus; test: Anticonvulsant activity in F-1 albino mouse assessed as protection against 32 mA current-induced seizure at 100 mg/kg, ip pretreated at 2 hrs before current challenge by 6 Hz psychomotor seizure test; assay type: functional, organism-based
[19] = system: Mus musculus; test: Anticonvulsant activity in F-1 albino mouse assessed as protection against 32 mA current-induced seizure at 100 mg/kg, ip pretreated at 0.5 hrs before current challenge by 6 Hz psychomotor seizure test; assay type: functional, organism-based

| SMILES | Activity [1] | Activity [2] | Activity [3] | Activity [4] | ED50 [5] [mg/kg] | Activity [6] | Activity [7] | Activity [8] | Activity [9] | Activity [10] | Activity [11] | Activity [12] | Activity [13] | Activity [14] | Activity [15] | Activity [16] | Activity [17] | Activity [18] | Activity [19] |
| --- | --- | --- | --- | --- | --- | --- | --- | --- | --- | --- | --- | --- | --- | --- | --- | --- | --- | --- | --- |
| O=C1C=C(NCc2ccc(F)c(C(F)(F)F)c2)CC(C(F)(F)F)C1 (configuration not stated) | Active | inactive | inactive | Non-Toxic | 23.5 | Active | inactive | Non-Toxic | Non-Toxic | inactive | inactive | Non-Toxic | Non-Toxic | Non-Toxic | inactive | – | – | – | – |
| COc1ccc(CNC2=CC(=O)CC(C(F)(F)F)C2)cc1 (configuration not stated) | – | inactive | inactive | Non-Toxic | – | – | inactive | Non-Toxic | Non-Toxic | inactive | inactive | Non-Toxic | Non-Toxic | Non-Toxic | inactive | inactive | inactive | – | – |
| O=C1C=C(Nc2ccc(Br)cc2C(=O)O)CC(C(F)(F)F)C1 (configuration not stated) | – | – | inactive | Non-Toxic | – | – | inactive | Non-Toxic | Non-Toxic | inactive | inactive | Non-Toxic | Non-Toxic | Non-Toxic | inactive | inactive | inactive | inactive | – |
| NC(=O)N1c2ccccc2C=Cc2ccccc21 [CARBAMAZEPINE] | – | – | – | – | 28.2 | – | – | – | – | – | – | – | – | – | – | – | – | – | – |
| O=C1C=C(NCc2cccc(OC(F)(F)F)c2)CC(C(F)(F)F)C1 (configuration not stated) | – | Active | inactive | Non-Toxic | – | – | inactive | Non-Toxic | Non-Toxic | inactive | – | Non-Toxic | Non-Toxic | Non-Toxic | Active | – | inactive | inactive | inactive |
| O=C1C=C(NCc2ccc(Br)cc2)CC(C(F)(F)F)C1 (configuration not stated) | – | – | inactive | Non-Toxic | – | – | inactive | Non-Toxic | Non-Toxic | inactive | inactive | Non-Toxic | Non-Toxic | Non-Toxic | inactive | – | inactive | inactive | – |
| O=C1C=C(NCc2cc(C(F)(F)F)cc(C(F)(F)F)c2)CC(C(F)(F)F)C1 (configuration not stated) | – | inactive | inactive | Non-Toxic | – | – | inactive | Non-Toxic | Non-Toxic | inactive | inactive | Non-Toxic | Non-Toxic | Non-Toxic | inactive | – | – | inactive | – |
| O=C1C=C(NCc2cc(F)ccc2F)CC(C(F)(F)F)C1 (configuration not stated) | Active | inactive | inactive | Non-Toxic | – | Active | inactive | Non-Toxic | Non-Toxic | inactive | inactive | Non-Toxic | Non-Toxic | Non-Toxic | inactive | inactive | inactive | inactive | – |
| O=C1C=C(NCc2cccc(C(F)(F)F)c2)CC(C(F)(F)F)C1 (configuration not stated) | – | – | inactive | Non-Toxic | – | – | inactive | Non-Toxic | Non-Toxic | inactive | inactive | Non-Toxic | Non-Toxic | Non-Toxic | inactive | inactive | inactive | – | – |
| O=C1C=C(Nc2ccc(Cl)cc2)CC(C(F)(F)F)C1 (configuration not stated) | – | – | – | Non-Toxic | 62.4 | – | – | Non-Toxic | – | – | – | – | – | – | – | – | – | – | – |
